Series [1] has as its target T1, serotoninergic 5-HT6 receptor (Homo sapiens, UniProt P50406). Kind of series: Cellular functional assay, serotoninergic 5-HT6 receptor (agonism/antagonism). To be noted: for inhibition at 1 µM: read-out: 5-HT6-antag. [%]. It is filed as cell-based. The protocol:
(§1) The compounds were tested at the concentration of 1×10^−6M.
(§2) In the Tables ag refers to agonism, and antag to antagonism).

In series [2] the target is T2, serotoninergic 5-HT7 receptor (Homo sapiens, UniProt P34969). In words: Cellular functional assay, serotoninergic 5-HT7 receptor (agonism/antagonism). It is filed as cell-based. To be noted: for activation at 1 µM: agonist effect, percent of control specific agonist response, compounds tested at 1×10^−6M, read-out: 5-HT7-ag [%]; for inhibition at 1 µM: read-out: 5-HT7-antag. [%]. As to the method:
as §1, §2

Series [3] has as its target T3, serotonine transporter (SERT) receptor (Homo sapiens, UniProt P31645).
T3 construct: expressed in transfected cells; host or cells: CHO cells
In words: Binding assay SERT (h), [3H]imipramine, CHO cells. To be noted: read-out: SERT [%]. The essentials:
(§3)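 Detection relied on scintillation counting of bound ligand. Compounds at 1×10^−6 M were evaluated against specific binding, i.e. total binding corrected for the nonspecific fraction seen with excess unlabelled ligand.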

In series [4] the target is T1, serotoninergic 5-HT6 receptor. Kind of series: Binding assay 5-HT6 (h), [3H]LSD, CHO cells. The arrangement: expressed in transfected cells; host or cells: CHO cells. To be noted: read-out: 5-HT6. The essentials:
as §3

Series [5] addresses dopaminergic D3 receptor (Homo sapiens, UniProt P35462). In words: Binding assay D3 (h), [3H]methyl-spiperone, CHO cells. The arrangement: expressed in transfected cells; host or cells: CHO cells. To be noted: read-out: D3 [%]. In short, it runs like this: as §3
Series [6] concerns sigma σ receptor. In words: Binding assay σ (non-selective), [3H]DTG, rat cerebral cortex. To be noted: percent inhibition of control specific binding; compounds tested at 1×10^−6 M. The essentials: as §3
The target in series [7] is T4, muscarinic M3 receptor (Homo sapiens, UniProt P20309).
T4 construct: expressed in transfected cells; host or cells: CHO cells
T4 sequence (P20309 whole entry): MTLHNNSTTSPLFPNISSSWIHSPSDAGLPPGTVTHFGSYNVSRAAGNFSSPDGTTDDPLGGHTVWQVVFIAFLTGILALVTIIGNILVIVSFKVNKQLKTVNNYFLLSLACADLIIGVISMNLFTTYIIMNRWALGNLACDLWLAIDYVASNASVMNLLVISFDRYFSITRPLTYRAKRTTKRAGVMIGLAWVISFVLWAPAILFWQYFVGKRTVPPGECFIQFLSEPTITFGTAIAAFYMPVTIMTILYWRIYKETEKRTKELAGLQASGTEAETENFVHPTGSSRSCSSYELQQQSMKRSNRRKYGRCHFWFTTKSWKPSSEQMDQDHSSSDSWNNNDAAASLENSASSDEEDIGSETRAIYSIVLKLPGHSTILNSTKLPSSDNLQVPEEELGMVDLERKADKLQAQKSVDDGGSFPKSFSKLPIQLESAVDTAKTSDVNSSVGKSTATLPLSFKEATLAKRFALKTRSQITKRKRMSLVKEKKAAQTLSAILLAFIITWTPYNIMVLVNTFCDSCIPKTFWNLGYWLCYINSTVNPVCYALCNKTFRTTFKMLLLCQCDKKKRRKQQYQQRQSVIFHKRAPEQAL
Kind of series: Binding assay M3 (h), [3H]4-DAMP, CHO cells. To be noted: read-out: M3 [%]. The essentials:
as §3

Series [8] has as its target dopaminergic D2 receptor (Homo sapiens, UniProt P14416). In words: Binding assay D2S (h), [3H]methyl-spiperone, HEK-293 cells. The arrangement: expressed in transfected cells; host or cells: HEK-293 cells. To be noted: read-out: D2 [%]. The essentials:
as §3

The subject of series [9] is adrenergic α1 receptor. Kind of series: Binding assay α1 (non-selective), [3H]prazosin, rat cerebral cortex. To be noted: percent inhibition of control specific binding; compounds tested at 1×10^−6 M. In short, it runs like this: as §3
Series [10] addresses T5, hERG potassium channels (Homo sapiens, UniProt Q12809). In words: hERG potassium channel block, electrophysiology (IonWorks Quattro), CHO cells. To be noted: % block of hERG current, cloned hERG channels in CHO cells, IonWorks Quattro. A general note: hERG is a cardiac potassium channel; its block is linked to QT prolongation.
Protocol: (§4) Ability to block hERG potassium channels was determined using the electrophysiological method and cloned hERG potassium channels (KCNH2 gene, expressed in CHO cells) as biological material. The effects were evaluated using IonWorks™ Quattro system (MDS-AT).
(§5) hERG current was elicited using a pulse pattern with fixed amplitudes (conditioning prepulse: −80 mV for 25 ms; test pulse: +40 mV for 80 ms) from a holding potential of 0 mV. hERG current was measured as a difference between the peak current at 1 ms after the test step to +40 mV and the steady-state current at the end of the step to +40 mV.
(§6) Data acquisition and analyses was performed using the IonWorks Quattro™ system operation software (version 2.0.2; Molecular Devices Corporation, Union City, Calif.). Data were corrected for leak current.
The target of series [11] is T6, adrenergic α2C receptor (Homo sapiens, UniProt P18825).
T6 sequence (P18825 1-462): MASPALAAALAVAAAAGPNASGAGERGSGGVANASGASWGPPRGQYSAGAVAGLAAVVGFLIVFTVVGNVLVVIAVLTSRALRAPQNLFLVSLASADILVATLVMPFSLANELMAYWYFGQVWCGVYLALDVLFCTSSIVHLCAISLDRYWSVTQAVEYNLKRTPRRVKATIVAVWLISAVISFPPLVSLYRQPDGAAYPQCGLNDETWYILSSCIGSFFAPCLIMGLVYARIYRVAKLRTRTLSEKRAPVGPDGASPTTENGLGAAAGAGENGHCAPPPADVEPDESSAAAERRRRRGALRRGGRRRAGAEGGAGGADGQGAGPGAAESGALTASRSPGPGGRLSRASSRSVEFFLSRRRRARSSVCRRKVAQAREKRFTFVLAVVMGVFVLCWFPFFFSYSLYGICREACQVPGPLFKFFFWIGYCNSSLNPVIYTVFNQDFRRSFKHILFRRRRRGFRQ
In words: Binding assay α2C (h), [3H]RX 821002, CHO cells. The arrangement: expressed in transfected cells; host or cells: CHO cells. To be noted: read-out: α2C [%]. The essentials: as §3

Series [12] deals with serotoninergic 5-HT2A receptor (Homo sapiens, UniProt P28223). In words: Binding assay 5-HT2A (h), [3H]ketanserin, HEK-293 cells. The arrangement: expressed in transfected cells; host or cells: HEK-293 cells. To be noted: read-out: 5-HT2A. The essentials: as §3
Sequence of serotoninergic 5-HT2A receptor (P28223 whole entry): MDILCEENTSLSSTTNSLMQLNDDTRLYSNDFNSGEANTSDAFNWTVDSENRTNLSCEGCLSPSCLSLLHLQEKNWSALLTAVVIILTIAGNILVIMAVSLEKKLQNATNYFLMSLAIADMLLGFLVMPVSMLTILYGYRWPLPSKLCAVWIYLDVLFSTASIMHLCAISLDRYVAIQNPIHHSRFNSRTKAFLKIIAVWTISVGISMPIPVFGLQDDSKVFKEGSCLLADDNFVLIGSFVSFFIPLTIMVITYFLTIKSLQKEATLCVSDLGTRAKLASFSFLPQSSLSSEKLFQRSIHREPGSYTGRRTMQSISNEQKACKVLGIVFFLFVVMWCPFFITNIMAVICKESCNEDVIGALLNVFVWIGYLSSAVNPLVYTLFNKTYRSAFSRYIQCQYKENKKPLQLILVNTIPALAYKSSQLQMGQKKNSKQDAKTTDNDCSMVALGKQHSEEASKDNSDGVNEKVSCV
The target in series [13] is histaminergic H1 receptor (Homo sapiens, UniProt P35367). In words: Binding assay H1 (h), [3H]pyrilamine, HEK-293 cells. Further details: expressed in transfected cells; host or cells: HEK-293 cells. To be noted: read-out: H1 [%]. In short, it runs like this: as §3
Sequence of histaminergic H1 receptor (P35367 whole entry): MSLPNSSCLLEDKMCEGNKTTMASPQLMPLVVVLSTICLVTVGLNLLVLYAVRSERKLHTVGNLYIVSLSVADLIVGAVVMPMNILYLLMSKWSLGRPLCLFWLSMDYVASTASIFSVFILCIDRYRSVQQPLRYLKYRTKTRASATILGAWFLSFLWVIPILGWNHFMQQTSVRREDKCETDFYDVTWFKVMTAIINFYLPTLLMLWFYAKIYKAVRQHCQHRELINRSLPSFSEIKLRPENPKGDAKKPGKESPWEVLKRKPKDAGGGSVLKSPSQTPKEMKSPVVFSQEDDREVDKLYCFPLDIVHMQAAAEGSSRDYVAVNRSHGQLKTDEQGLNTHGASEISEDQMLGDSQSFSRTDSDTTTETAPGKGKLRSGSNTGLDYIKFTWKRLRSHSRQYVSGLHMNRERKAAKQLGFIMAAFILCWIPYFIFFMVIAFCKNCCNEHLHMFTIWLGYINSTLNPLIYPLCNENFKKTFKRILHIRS
The target in series [14] is T7, serotoninergic 5-HT1A receptor (Homo sapiens, UniProt P08908).
T7 sequence (P08908 1-422): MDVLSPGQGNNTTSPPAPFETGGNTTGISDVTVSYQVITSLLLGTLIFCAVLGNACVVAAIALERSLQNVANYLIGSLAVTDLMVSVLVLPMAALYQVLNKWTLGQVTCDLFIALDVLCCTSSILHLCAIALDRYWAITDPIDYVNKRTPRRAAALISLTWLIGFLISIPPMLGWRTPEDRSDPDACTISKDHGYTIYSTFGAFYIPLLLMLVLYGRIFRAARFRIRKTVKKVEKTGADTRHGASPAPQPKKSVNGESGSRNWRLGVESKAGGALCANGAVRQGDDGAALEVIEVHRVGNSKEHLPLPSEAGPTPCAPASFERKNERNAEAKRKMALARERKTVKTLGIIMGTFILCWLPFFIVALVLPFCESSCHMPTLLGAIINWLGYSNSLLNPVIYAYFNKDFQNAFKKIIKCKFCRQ
In words: Binding assay 5-HT1A (h), [3H]8-OH-DPAT, HEK-293 cells. Further details: expressed in transfected cells; host or cells: HEK-293 cells. To be noted: read-out: 5-HT1A. The essentials:
as §3

Series [15] deals with T2, serotoninergic 5-HT7 receptor. Kind of series: Binding assay 5-HT7 (h), [3H]LSD, CHO cells. Further details: expressed in transfected cells; host or cells: CHO cells. To be noted: read-out: 5-HT7. The essentials:
as §3

Series [16] has as its target T8, serotoninergic receptor 5-HT2C (Homo sapiens, UniProt P28335).
T8 construct: expressed in transfected cells; host or cells: HEK-293 cells
T8 sequence (P28335 33-458): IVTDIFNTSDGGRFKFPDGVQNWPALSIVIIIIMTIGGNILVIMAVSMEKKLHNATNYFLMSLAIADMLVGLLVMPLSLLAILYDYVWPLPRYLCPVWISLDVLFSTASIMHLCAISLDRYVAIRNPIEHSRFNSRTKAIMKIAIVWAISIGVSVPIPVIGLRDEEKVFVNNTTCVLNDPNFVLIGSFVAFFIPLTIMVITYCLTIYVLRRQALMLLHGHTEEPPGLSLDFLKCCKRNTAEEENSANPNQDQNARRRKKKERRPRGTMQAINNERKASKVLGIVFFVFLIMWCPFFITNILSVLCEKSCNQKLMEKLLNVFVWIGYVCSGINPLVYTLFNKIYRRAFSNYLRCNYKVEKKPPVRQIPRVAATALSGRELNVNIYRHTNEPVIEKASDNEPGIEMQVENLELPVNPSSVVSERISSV
In words: Binding assay 5-HT2C (h), [3H]mesulergine, HEK-293 cells. To be noted: read-out: 5-HT2C [%]. In short, it runs like this: as §3

For series [17], the target named is T5, hERG potassium channels.
Protocol: as §4, §5, §6

Structures are written as SMILES. Read-outs that look alike come from different tables or passages of the source.

Sequence of dopaminergic D3 receptor (P35462 whole entry): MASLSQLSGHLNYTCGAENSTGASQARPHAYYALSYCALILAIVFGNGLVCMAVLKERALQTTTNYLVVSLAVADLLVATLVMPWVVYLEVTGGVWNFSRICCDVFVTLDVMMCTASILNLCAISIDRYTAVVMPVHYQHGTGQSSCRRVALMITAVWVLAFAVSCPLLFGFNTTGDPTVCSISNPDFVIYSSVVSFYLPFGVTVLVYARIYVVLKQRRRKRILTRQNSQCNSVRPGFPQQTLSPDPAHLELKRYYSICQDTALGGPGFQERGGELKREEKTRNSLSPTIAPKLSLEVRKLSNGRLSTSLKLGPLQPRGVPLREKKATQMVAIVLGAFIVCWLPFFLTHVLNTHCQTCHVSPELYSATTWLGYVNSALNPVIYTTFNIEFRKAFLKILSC
T3 sequence (P31645 whole entry): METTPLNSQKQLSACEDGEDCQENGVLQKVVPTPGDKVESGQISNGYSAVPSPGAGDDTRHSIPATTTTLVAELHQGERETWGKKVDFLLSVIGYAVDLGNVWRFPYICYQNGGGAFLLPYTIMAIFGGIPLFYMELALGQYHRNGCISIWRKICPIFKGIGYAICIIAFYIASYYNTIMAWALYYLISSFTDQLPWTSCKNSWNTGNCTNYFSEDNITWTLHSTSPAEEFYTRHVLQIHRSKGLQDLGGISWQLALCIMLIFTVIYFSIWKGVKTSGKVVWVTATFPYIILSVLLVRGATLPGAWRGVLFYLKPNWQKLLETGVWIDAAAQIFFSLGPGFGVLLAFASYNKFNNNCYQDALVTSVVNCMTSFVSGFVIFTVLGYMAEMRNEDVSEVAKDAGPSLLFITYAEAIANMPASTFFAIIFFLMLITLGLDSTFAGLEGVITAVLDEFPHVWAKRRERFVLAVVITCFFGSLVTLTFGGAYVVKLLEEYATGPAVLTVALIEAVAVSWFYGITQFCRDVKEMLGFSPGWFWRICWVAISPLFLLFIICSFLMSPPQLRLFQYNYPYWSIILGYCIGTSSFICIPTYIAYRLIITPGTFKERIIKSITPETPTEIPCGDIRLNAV
T2 sequence (P34969 whole entry): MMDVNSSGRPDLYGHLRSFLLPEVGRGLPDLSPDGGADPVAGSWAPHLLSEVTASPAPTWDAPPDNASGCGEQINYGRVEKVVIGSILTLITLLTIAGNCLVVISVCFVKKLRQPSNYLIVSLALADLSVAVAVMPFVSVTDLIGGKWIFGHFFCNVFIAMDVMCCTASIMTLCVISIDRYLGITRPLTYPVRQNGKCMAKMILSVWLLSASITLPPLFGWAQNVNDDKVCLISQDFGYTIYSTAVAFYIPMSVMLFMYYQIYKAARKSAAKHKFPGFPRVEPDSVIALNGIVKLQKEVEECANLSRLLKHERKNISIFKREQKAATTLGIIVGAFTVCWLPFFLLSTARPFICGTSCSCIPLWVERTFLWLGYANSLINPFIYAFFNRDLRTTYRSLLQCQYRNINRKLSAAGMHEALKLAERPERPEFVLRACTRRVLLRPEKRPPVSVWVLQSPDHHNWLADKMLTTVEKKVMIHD
T1 sequence (P50406 whole entry): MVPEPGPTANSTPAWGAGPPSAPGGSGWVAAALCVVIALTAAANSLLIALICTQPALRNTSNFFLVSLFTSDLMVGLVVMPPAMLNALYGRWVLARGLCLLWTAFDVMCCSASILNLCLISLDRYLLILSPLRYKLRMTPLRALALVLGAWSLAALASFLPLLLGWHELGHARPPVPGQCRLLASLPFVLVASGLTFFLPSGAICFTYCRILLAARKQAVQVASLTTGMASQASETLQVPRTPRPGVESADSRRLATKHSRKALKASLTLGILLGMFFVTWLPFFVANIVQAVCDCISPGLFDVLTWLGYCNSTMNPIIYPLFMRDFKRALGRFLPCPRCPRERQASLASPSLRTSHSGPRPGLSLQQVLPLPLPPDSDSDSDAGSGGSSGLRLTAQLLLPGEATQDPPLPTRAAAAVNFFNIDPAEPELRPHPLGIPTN
T5 sequence (Q12809 whole entry): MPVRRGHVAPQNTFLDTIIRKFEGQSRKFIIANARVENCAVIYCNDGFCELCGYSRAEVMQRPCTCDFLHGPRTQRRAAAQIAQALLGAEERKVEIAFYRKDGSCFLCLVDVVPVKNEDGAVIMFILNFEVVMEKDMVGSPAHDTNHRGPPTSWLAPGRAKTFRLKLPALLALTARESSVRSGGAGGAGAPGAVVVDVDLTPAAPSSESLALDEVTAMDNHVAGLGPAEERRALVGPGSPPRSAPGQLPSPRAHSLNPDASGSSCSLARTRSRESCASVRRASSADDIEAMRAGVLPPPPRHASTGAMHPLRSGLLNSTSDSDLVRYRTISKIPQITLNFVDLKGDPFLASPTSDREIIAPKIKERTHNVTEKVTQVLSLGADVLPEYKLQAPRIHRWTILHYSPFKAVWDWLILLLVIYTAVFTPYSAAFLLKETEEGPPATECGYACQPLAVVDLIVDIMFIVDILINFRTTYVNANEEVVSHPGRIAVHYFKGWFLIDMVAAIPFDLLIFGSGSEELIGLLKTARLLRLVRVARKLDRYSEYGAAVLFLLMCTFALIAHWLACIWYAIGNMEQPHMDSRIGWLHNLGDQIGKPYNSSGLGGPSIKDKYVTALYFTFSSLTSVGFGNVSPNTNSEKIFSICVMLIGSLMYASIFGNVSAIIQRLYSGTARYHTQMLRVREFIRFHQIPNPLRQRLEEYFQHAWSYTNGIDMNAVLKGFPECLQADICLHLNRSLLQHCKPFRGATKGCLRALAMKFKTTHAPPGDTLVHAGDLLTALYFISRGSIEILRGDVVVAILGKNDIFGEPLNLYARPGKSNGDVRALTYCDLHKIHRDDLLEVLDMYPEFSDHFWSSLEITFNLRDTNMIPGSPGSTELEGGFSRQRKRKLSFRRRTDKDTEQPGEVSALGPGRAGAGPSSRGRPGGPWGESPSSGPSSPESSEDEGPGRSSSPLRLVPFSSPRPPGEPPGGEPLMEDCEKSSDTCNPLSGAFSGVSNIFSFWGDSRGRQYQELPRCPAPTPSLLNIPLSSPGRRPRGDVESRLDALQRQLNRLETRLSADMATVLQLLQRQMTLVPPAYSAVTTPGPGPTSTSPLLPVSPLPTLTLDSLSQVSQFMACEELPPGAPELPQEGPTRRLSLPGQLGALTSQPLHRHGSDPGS

`O=S(=O)(NCCCN1CCN(c2nsc3ccccc23)CC1)c1cccc2ccccc12` [Compound 5, N-(3-(4-(1,2-Benzothiazol-3-yl)piperazin-1-yl)propyl)naphthalene-1-sulphonamide]: the inhibition at 1 µM in series [1] stood at 18%; in series [2], 85%; in [3], 84%; in series [4] it was 84%; in series [5], 98%; in series [7], 7%. Moreover, the inhibition at 1 µM in [8] was 96%; in [11], 99%; in series [12], 99%; in [13], 92%; in series [14] it was 99%; in [15], 98%. Moreover, in series [16], the inhibition at 1 µM was found to be 81%. Moreover, the activation at 1 µM in series [2] is -1%. The “σ [%]” value in series [6] turned out to be 72%. Also, in [9], the “α1 [%]” value worked out at 98%. Besides, in [10], the “hERG [%]” value is recorded as 17%.

Regarding `O=S(=O)(NCCCN1CCN(c2nsc3ccccc23)CC1)c1ccc2ccccc2c1` [Compound 6, N-(3-(4-(1,2-Benzothiazol-3-yl)piperazin-1-yl)propyl)naphthalene-2-sulphonamide], the inhibition at 1 µM in series [1] was 26%; in series [2], 66%; in [3], 95%; in series [4] it was 88%; in series [5], 97%; in [7], -1%. Further, the inhibition at 1 µM in [8] came out at 96%; in series [11] it was 93%; in series [12], 100%; in series [13], 93%; in [14], 99%; in series [15], 98%. For the same compound, in [16], the inhibition at 1 µM is 88%. Besides, the activation at 1 µM in series [2] was 0%. In series [6], the “σ [%]” value is 59%. The “α1 [%]” value in [9] worked out at 95%. For the same compound, the “hERG [%]” value in [10] was determined as 13%.

For `O=S(=O)(NCCCCN1CCC(c2noc3cc(F)ccc23)CC1)c1cccc2ccccc12` [Compound 17, N-[4-[4-(6-Fluoro-1,2-benzoxazol-3-yl)piperidin-1-yl]butyl]naphthalene-1-sulphonamide], the activation at 1 µM in series [1] (agonist effect, percent of control specific agonist response, compounds tested at 1×10^−6M, read-out: 5-HT6-ag [%]) was determined as 2%. Besides, the inhibition at 1 µM in series [1] was 69%; in [2] it was 95%; in [3] it was 44%; in [4] it was 99%; in series [5], 93%; in series [7], 7%. For the same compound, the inhibition at 1 µM in [8] turned out to be 98%; in series [11], 100%; in [12], 100%; in [13], 80%; in series [14], 84%; in series [15] it was 99%. Besides, in series [16], the inhibition at 1 µM stood at 62%. The “hERG [%]” value in [10] amounted to 24%.

Consider `Cc1[nH]c2ccc(Cl)cc2c1C1=CCN(CCCNS(=O)(=O)c2cccc(O)c2)CC1` [Compound 445, N-[3-[4-(5-Chloro-2-methyl-1H-indol-3-yl)-3,6-dihydro-2H-pyridin-1-yl]propyl]-3-hydroxybenzenesulphonamide], for which the “hERG [%]” value in series [17] was 2%. The inhibition at 1 µM in series [3] came out at 68%; in [4], 84%; in [5] it was 97%; in [7], 27%; in series [8], 98%; in series [11], 69%. In addition, the inhibition at 1 µM in [12] is 78%; in [13], 60%; in series [14], 93%; in series [15] it was 98%; in series [16], 67%. Also, in [6], the “σ [%]” value was 67%. For the same compound, the “α1 [%]” value in [9] worked out at 50%.

The values are drawn from US8822517B2, “Arylosulfonamides for the treatment of CNS diseases” (Adamed SP. Z O.O., priority 2010, dated 2014).
